Source: US20130039956A1, “USE OF NITROCARBOXYLIC ACIDS FOR THE TREATMENT, DIAGNOSIS AND PROPHYLAXIS OF AGGRESSIVE HEALING PATTERNS” (priority 2010, published 2013)

Experiments:
Cardiomyocytes = assay: TGF-β1-inducible formation of extracellular matrix in cardiomyocytes under shear stress; format: cell-based; conditions: 10-100 μmol, shear stress up to 100 dyn/cm^2; compared with native FA
Experimental: Characterizing features of the fibrous remodelling in the heart are accentuated expression and deposition of extracellular matrix proteins (ECM). This has been attributed to increased mechanical forces via autocrine release of transforming growth factor-beta (TGF-beta). […] An established cell culture model was used to investigate the effect of shear stress on cardiomyocytes. Cardiomyocytes were cultured and transferred to a matrigel substrate. Plates with confluenced cells were placed into a shear force injury device (SFID). The SFID design is based on a cone-and-plate construction which is a well-defined rheological model in which a homogenously distributed laminar flow over the surface of the cells is generated by a rotating cone. The conical surface is positioned above a stationary flat plate and the fluid medium between these two surfaces is set in motion by rotating the cone to create a uniform level of fluid shear stress throughout the entire surface of the cells cultured on the coverslips.
A peak shear stress of 100 dyn/cm^2 could be applied without significant cell detachment enabling a maximum injury severity of 46%. Cells were exposed to FCS 1% without or with nitro-fatty acid, and the corresponding native fatty acid in a dosage range between 10 μmol and 100 μmol, 10 seconds before shear force application. Shear force peaks up to 100 dyn/cm^2 with a duration of 30 msec each with a repetition frequency of 60/minute were applied for 5, 10, 30 and 60 minutes. Thereafter the cell plates were washed and placed in FCS 1% for 24 hrs. The supernatant of the shear force investigation as well as that of the following culture phase was analysed. It could be shown that TGF-beta and ECM proteins (collagen I, fibronectin, laminin, elastin) increased after treatment in the control groups.

[1] = test system: Murine macrophage-like cells RAW 264.7 and murine L929 fibroblasts; assay: Monocyte/fibroblast co-culture on coated surgical suture material; format: cell-based; conditions: dip-coated suture material, 24 and 48 hours; compared with native FA
From the text: In order to determine immunoreactions to foreign material and its consequence on fibrogenesis, co-cultures of fibroblasts and monocytes were used. Commercially available suture materials (propylene, polyamide, and silk) were dip-coated with corresponding native and nitrated fatty acids. Untreated suture material served as control. Treated and untreated suture materials were out in small pieces and placed in a 96-well plate.
Murine macrophage-like cells RAW 264.7 and murine L929 fibroblasts were cultured to a population density of 5×10(5) each. Cell suspensions were merged achieving a cellularity of approximately 2.5×10(5) cell/ml of each cell population which were added to the wells. The suture material samples were fully covered by the suspension. Wells were continuously and gently shaken throughout the incubation period.
Supernatants were collected for assays after 24 and 48 hours and analyzed for profibrotic cytokines IL-13, IL-4, and IL-6, TGF-β1, collagen I.

[2] = test system: female Sprague-Dawley rats; assay: Fibrogenesis in an in-vivo model of soft implant implantation; design: species or system rat; conditions: subcutaneous implants, 120 days, compared with native FA
Experimental: Silicone bag-gel miniprostheses (POLYTECH Health & Aesthetics GmbH, Dieburg, Germany) having a diameter of 2 cm and a volume of approximately 2 ml were used. […] The experimentally used implant models had two small tags which allowed the implants to be suspended during the coating procedures.
Each implant was treated in the following manner: cleaning by sonication for 2 min each in the following sequence of solvents: acetone, toluene, acetone, ethanol, and water. Implants were exposed to Piranha solution for 60 min and rinsed with deionized water. They were then immersed in a 20% aqueous solution of ammonium fluoride for 45 min to obtain a hydrogen-passivated Si surface. The ammonium fluoride solution was sparged with nitrogen for 15 min to remove dissolved oxygen. Prepared implants were transferred to a glass chamber filled with an inert atmosphere where they were suspended so that no part of their surface came in contact with the container. The container was filled with a 1-hexadecene solution and heated at 150° C. at a pressure of 2 Torr for 120 min. Prepared implants were cleaned in the following sequence of solvents: acetone, ethanol, and water. Formation of self assembled monolayer was controlled by measuring surface hydrophobicity; the contact angle was about 105°. Dry implants suspended in the container were then bathed in an ethanolic solution of oleic acid or nitro-oleic acid at a temperature of 40° C. for 120 min. Thereafter, the solution was allowed to run out slowly through an outlet at the bottom of the container. The emptying container was filled with inert gas in which the samples were maintained for 24 hours. Then samples were bathed three times in an ethanolic solution, followed by a final rinsing with sterile water. After drying, the container with the prepared implant was sterilized using ethylene oxide and stored at 20° C.
For in vivo testing, 24 uncoated and 24 coated implants were investigated in 24 female Sprague-Dawley rats (190-230 g). In the anesthetized animals, bilateral dorsal pockets in the subcutaneum were created by blunt dissection through paired paravertebral incisions. Each animal received one coated implant and one control implant on opposite sides, alternating sides on successive animals. Animals were housed and fed according to institutional standards for 120 days. Animals were sacrificed with chloroform. The implants and the adhering tissue were extracted by en bloc resection. The implants were cannulated and the liquid silicone gel was replaced by paraffin. Thereafter, the complete tissue block was prepared by standard means of histology, and stained with H&E or Masson's trichrome.

fibroblasts = assay: Mechanical alteration of fibroblasts (cyclic stretching of coated polypropylene meshes); format: cell-based; conditions: cyclic stretching, day 7, day 21, 8 weeks, compared with native FA
From the text: In order to simulate the effects of chronic shear forces on a healing wound, an in vitro model was established. A flat balloon was placed on the bottom of a Petri dish. A silicone sheet was placed above and sealed with the side of the Petri dish. Then a 3 mm agar layer was casted on top of the sheet. Commercially available polypropylene meshes for hernia repair (microporous mesh, a low-weight and macroporous mesh with absorbable polyglactin filaments, and a heavy-weight and microporous mesh) were placed on the agar plates and fixed at 4 points at the side of the Petri dish. This setting enabled stretching of the meshes by filling the balloons with air, which was performed at 10-second intervals using an automated pumping device. The model can be used to evaluate the effect of three-dimensional (3D) shear forces on cell growth during cell cultivation. Preincubated suspensions of fibroblasts (1.5×10(5) cells) in a culture medium (10% FCS) were added to the culture dishes and allowed to grow for 48 hours. Cyclic stretching was started at day 3. Histological analysis was performed from the central portions of the meshes at day 7, at day 21, and after 8 weeks. The scaffolds were detached from the culture plate and carefully rinsed. Then, they were cut into pieces, casted, and further processed for standard histology and immunohistology. Care was taken to achieve a cutting plane that was vertical to the surface plane of the meshes. Histological analysis evaluated the cellularity, the content of extra cellular matrix (ECM), and the magnitude of protein synthesis. Meshes were dip-coated with native and nitro fatty acids or left blank in the same manner as in example 1. The uncoated meshes served as controls.
Note: key: 0: not superior to native FA (control); +: Superior to native FA; ++: superior to both; +++: outstanding effect.

| SMILES | Relative efficacy to suppress TGF-beta and ECM proteins in cardiomyocytes (Cardiomyocytes) | Relative effect on profibrotic cytokines and collagen I on suture material [1] | Relative effect of surface coating on fibrogenesis around silicone implants [2] | Relative effect on fibroblasts under mechanical alteration (fibroblasts) |
| --- | --- | --- | --- | --- |
| CCCCCCCCCCC/C=C(/CCCCC(=O)O)[N+](=O)[O-] [compound 21, 6-nitro-cis-6-octadecenoic acid] | ++ | + | + | + |
| CCCCCC=CCC=C(CC=CC/C=C\CCCC(=O)O)[N+](=O)[O-] [compound 22, 11-nitro-cis-5,8,11,14-eicosatetraenoic acid] | ++ | + | ++ | ++ |
